Measured values: ChEMBL document CHEMBL1201862, “PubChem BioAssay data set” (2004)
Calls of active or inactive are those of the source.

Key:
Leucine aminopeptidase = molecular target: T1, Leucine aminopeptidase (Plasmodium falciparum 3D7, UniProt Q8IL11); experiment: P. falciparum M17LAP inhibitors, primary screen, biochemical, fluorogenic H-Leu-NHMec substrate, 1536-well (AID 1619); format: functional
T1 sequence (Q8IL11 whole entry): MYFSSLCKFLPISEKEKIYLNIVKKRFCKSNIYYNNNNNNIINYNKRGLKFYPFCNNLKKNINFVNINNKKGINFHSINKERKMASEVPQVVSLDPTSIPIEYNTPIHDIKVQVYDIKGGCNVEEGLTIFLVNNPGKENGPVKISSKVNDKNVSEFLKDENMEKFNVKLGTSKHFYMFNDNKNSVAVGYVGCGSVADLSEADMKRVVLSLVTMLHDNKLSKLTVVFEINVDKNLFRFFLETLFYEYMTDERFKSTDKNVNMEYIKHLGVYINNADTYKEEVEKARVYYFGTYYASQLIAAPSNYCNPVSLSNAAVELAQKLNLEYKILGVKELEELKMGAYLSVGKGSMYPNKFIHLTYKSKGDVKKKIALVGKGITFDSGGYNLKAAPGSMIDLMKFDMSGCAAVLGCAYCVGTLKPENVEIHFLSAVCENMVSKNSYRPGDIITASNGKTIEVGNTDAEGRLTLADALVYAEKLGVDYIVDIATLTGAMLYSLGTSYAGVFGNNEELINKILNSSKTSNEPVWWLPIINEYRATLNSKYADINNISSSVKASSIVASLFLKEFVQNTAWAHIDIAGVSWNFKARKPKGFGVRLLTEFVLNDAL

cells = format: functional
[1] = molecular target: G-protein coupled receptor 55 (Homo sapiens, UniProt Q9Y2T6); experiment: GPR55 agonists via beta-arrestin recruitment, primary screen, imaging, U2OS cells, beta-arrestin-GFP redistribution (AID 1961); format: functional
Sequence of G-protein coupled receptor 55 (Q9Y2T6 whole entry): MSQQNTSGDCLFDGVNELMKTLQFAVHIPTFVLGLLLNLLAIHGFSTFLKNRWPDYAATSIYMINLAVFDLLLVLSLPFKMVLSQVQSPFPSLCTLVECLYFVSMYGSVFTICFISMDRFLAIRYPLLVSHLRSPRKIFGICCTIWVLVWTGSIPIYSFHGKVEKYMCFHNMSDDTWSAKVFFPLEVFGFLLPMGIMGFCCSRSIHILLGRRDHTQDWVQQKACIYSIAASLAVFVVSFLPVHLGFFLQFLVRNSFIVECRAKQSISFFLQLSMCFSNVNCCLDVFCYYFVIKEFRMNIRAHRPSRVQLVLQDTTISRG

[2] = tested on: Streptococcus sp. 'group A'; experiment: growth inhibition of control SK(-) GAS strain, dose response, counter-screen for streptokinase expression inhibitor project, luminescence, kanamycin, BacTiterGlo, confirmation (AID 1900); format: functional, organism-based
[3] = cytotoxicity in HPDE-C7 cells, cell-based, fluorescence, HTS (AID 430); format: functional; conditions: Homo sapiens
[4] = cytotoxicity in KRAS-transformed pancreatic duct cells, primary screen, cell-based, fluorescence, HTS (AID 431); format: functional; conditions: Homo sapiens;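 also: cell line used: HPDE-C7K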
Streptococcus = experiment: Group A Streptococcus viability loss, dose response, counter-screen for streptokinase expression inhibitor project, luminescence, BacTiterGlo (AID 1915); format: functional, organism-based;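 also: potency for reduction of bacterial viability or growth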
INS1 = experiment: beta cell apoptosis inhibitors, cytokine rescue, dose response, luminescence, retest (AID 449756); format: functional, cell-based; conditions: Rattus norvegicus;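 also: cell death triggered by IL-1 beta plus TNF-alpha plus IFN-gamma mixture; protective hits raise ATP signal compared with cytokine alone wells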
[5] = molecular target: DNA dC->dU-editing enzyme APOBEC-3A (Homo sapiens, UniProt P31941); experiment: APOBEC3A DNA deaminase inhibitors, dose response, biochemical (AID 504722); format: functional
Sequence of DNA dC->dU-editing enzyme APOBEC-3A (P31941 whole entry): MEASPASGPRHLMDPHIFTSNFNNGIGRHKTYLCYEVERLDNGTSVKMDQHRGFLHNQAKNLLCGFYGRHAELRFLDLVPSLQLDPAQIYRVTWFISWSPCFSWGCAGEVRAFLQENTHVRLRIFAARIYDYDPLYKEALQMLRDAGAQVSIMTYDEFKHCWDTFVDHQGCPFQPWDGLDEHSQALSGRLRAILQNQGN

[6] = molecular target: DNA dC->dU-editing enzyme APOBEC-3G (Homo sapiens, UniProt Q9HC16); experiment: Dose Response confirmation of small molecule APOBEC3G DNA Deaminase Inhibitors via a fluorescence-based single-stranded DNA deaminase assay. [Related pubchem assays (depositor defined):AID493012, AID493028]; format: functional
Sequence of DNA dC->dU-editing enzyme APOBEC-3G (Q9HC16 whole entry): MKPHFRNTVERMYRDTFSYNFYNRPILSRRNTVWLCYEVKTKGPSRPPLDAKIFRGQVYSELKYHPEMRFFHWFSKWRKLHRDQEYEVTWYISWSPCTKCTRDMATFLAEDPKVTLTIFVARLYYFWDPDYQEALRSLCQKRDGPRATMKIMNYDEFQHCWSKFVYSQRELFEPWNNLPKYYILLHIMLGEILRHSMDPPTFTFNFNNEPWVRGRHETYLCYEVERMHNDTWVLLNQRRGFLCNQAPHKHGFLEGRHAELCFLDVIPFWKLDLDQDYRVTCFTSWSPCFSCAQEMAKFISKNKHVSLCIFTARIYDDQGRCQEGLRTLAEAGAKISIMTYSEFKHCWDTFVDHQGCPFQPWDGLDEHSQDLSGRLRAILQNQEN

[7] = molecular target: FAD-linked sulfhydryl oxidase ALR (Homo sapiens, UniProt P55789); experiment: inhibitors of human ALR sulfhydryl oxidase, dose response, biochemical, H2O2 detection, luminescence, cherry-pick (AID 493248)
Sequence of FAD-linked sulfhydryl oxidase ALR (P55789 whole entry): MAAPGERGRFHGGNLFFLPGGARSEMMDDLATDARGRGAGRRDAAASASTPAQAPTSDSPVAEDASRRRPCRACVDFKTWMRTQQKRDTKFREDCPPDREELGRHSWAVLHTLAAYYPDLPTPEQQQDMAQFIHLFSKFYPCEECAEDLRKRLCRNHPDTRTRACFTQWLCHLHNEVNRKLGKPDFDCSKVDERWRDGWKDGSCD

[8] = molecular target: T2, Rac GTPase-activating protein 1 (Homo sapiens, UniProt Q9H0H5); experiment: MgcRacGAP GTPase-activating activity inhibitors, confirmation, biochemical, ADP Hunter fluorescence, primary and confirmatory (AID 624330); format: functional
T2 sequence (Q9H0H5 whole entry): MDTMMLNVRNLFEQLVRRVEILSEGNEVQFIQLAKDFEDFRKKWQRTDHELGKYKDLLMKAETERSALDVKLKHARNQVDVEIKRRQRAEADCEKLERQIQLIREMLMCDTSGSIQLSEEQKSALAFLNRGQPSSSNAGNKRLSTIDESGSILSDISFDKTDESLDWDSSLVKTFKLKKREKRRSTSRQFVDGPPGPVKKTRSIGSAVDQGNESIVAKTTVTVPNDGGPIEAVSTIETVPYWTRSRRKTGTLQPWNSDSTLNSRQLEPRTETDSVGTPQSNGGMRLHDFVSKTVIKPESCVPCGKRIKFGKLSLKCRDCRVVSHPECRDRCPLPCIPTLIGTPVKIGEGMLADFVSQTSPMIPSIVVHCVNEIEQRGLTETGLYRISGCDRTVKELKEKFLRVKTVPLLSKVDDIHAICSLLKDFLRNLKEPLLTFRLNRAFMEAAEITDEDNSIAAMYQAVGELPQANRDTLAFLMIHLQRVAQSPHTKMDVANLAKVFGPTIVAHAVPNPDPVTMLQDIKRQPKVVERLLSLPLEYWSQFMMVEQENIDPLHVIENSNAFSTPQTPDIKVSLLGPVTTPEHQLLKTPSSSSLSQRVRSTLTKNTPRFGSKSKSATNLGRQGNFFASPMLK

[9] = NIH-3T3 fibroblast cytotoxicity, dose response, cytotoxicity control, cell-based, fluorescence, Alamar Blue, secondary assay (AID 2327); format: functional;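 also: NIH-3T3 mouse fibroblasts cultured with fluconazole at 8 µg/mL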
[10] = molecular target: Transitional endoplasmic reticulum ATPase (Homo sapiens, UniProt P55072, C522A); experiment: C522A mutant p97 ATPase inhibitors, dose response, counter-screen for p97 inhibitor project, biochemical, luminescence (AID 1544)
Sequence of Transitional endoplasmic reticulum ATPase (Homo sapiens, UniProt P55072, C522A) (P55072 2-806 C522A limits assumed): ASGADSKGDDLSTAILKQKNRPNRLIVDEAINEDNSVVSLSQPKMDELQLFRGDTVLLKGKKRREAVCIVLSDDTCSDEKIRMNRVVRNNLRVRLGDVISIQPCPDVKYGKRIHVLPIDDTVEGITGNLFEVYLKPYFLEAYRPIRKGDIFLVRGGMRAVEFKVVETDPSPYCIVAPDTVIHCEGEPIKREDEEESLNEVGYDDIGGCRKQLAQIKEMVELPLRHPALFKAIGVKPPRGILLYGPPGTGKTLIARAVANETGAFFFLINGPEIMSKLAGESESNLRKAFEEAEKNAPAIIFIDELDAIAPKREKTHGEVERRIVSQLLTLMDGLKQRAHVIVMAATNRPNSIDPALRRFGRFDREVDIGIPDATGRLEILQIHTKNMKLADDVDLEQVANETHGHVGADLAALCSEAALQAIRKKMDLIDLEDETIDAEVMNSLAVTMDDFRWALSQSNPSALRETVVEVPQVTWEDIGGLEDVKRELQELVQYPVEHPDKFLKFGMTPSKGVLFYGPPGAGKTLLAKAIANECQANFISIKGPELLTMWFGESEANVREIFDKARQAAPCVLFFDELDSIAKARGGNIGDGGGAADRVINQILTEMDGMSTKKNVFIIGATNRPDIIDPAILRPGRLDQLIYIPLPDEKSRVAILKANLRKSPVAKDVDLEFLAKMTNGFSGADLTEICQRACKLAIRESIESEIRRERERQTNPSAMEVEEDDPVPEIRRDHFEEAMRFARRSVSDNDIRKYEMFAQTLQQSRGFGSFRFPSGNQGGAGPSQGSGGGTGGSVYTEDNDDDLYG

Streptokinase A = molecular target: T3, Streptokinase A (Streptococcus pyogenes serotype M1, UniProt P10520); experiment: S. pyogenes streptokinase expression inhibitors, potency, dose response, plasminogen activation absorbance, OD405 (AID 1914); format: functional, Streptococcus pyogenes M1 GAS;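 also: secreted streptokinase activity via plasminogen activation per viability signal from cell pellet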
T3 sequence (P10520 whole entry): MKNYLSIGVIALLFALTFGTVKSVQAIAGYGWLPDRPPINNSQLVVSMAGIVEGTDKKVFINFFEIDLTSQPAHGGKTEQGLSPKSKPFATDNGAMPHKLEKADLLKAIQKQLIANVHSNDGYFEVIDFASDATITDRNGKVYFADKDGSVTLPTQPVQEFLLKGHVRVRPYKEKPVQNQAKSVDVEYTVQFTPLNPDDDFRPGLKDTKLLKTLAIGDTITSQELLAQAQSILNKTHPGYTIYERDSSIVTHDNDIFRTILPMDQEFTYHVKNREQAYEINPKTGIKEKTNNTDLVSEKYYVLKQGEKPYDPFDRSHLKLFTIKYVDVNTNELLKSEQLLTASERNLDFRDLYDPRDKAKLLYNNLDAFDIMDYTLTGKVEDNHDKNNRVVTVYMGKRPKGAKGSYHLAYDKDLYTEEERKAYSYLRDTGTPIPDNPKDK

[11] = C. albicans growth with fluconazole, confirmation, fluorescence, retest (AID 2467); format: functional, cell-based
[12] = molecular target: Transitional endoplasmic reticulum ATPase (Homo sapiens, UniProt P55072); experiment: p97 ATPase inhibitors, dose response, biochemical (AID 1534)
Sequence of Transitional endoplasmic reticulum ATPase (Homo sapiens, UniProt P55072) (P55072 whole entry): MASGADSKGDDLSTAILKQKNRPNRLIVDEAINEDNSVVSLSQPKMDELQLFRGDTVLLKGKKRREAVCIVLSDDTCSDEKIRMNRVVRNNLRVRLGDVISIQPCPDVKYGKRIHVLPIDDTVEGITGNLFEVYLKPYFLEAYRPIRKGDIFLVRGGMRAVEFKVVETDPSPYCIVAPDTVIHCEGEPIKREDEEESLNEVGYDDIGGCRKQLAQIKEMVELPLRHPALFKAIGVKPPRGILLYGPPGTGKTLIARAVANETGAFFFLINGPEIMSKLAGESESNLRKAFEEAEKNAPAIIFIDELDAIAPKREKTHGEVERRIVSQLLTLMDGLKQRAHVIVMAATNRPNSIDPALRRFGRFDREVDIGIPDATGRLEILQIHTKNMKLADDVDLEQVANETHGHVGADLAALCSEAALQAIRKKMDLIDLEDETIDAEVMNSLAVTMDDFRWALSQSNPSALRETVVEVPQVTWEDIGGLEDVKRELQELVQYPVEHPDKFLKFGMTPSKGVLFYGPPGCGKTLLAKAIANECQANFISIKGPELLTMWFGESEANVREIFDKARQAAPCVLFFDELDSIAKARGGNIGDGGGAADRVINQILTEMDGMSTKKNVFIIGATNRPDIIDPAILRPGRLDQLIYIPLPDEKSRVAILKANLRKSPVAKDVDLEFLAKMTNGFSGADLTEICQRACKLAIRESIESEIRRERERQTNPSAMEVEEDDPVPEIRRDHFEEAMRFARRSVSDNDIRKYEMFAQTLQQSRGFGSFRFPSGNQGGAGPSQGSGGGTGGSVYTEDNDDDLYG

[13] = P. falciparum 3D7-ScDHODH growth inhibitors, dose response, SYBR Green, dry powder samples (AID 1159570); format: functional, cell-based;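 also: parasite growth measured after 72 hours of compound exposure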
[14] = HepG2 cell cytotoxicity, dose response, cytotoxicity control, plate reader, dry powder samples (AID 1159569); format: functional, cell-based;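 also: inhibitor potency with signal falling toward the positive control level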
[15] = P. falciparum Dd2 growth inhibitors, dose response, SYBR Green, cherry-picked samples (AID 1159567); format: functional, cell-based
[16] = P. falciparum Dd2 growth inhibitors, dose response, SYBR Green, dry powder samples (AID 1159566); format: functional, cell-based;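 also: potency for growth inhibition with lower SYBR green DNA signal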
[17] = P. falciparum ATP4 D1247Y mutant growth inhibitors, dose response, NITD609-resistant line, SYBR Green, dry powder (AID 1159571); format: functional, cell-based;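 also: parasites synchronized at ring stage by sorbitol before testing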

With `O=P(NS(=O)(=O)c1ccc(Br)cc1)(Oc1ccccc1)Oc1ccccc1` the IC50 (Leucine aminopeptidase) was 30.1 µM (active).
In the case of `COC(=O)c1ccc(Cn2cc(C(F)(F)F)cc([N+](=O)[O-])c2=O)cc1`, the IC50 (cells) is reported as 1.28 µM (active).
With `N#CC1=C(S)N(c2ccccc2)C(c2ccc(-c3cc(Cl)ccc3Cl)o2)NC1=O` (stereo not given) the EC50 [1] was > 32 µM (inactive).
For `Oc1ccc(COCc2ccccc2)c2cccnc12`, the EC50 [2] was 2.14 µM (active), the EC50 [3] was 10.4 µM (active) and the EC50 [4] was 8.49 µM (active). The EC50 (Streptococcus) was 3.25 µM (active) and the AC50 (INS1) was 1.77 µM (active).
In the case of `CCc1ccc(-c2nn(Cc3ccccc3)cc2/C=C/C(=O)O)cc1`, the IC50 (Leucine aminopeptidase) is reported as 31.5 µM (active).
In the case of `CC(NC(=O)COc1ccc(-c2ccccc2)cc1)C1CCCO1` (stereo not given), the IC50 (cells) is reported as 45.6 µM (active).
With `Cc1ccc(/C=N/n2c(S)nnc2-c2cccnc2)s1` the IC50 [5] was > 100 µM (inactive), the IC50 [6] was 2 µM (active) and the AC50 [7] was 2.34 µM (active). For the same molecule, the IC50 [8] was 53.9 µM (active).
In the case of `Cc1ccc(SC/C(O)=C(\C#N)c2nc3ccccc3s2)cc1`, the EC50 [9] is reported as 138 µM (active), the EC50 [2] is reported as 2.95 µM (active) and the IC50 [10] is reported as > 50 µM (not active). The EC50 (Streptokinase A) was > 150 µM (not active), the EC50 [11] was 0.425 µM (active) and the IC50 [12] was > 50 µM (not active). The EC50 (Streptococcus) was 7.74 µM (active).
In the case of `COc1ccc(-c2ccccc2[C@H]2[C@@H](C#N)N(C(=O)NC3CCCCC3)[C@H]2CO)cc1`, the AC50 [13] is reported as 4.54 µM (active), the AC50 [14] is reported as > 100 µM (inactive) and the AC50 [15] is reported as 3.13 µM (active). For the same molecule, the AC50 [16] was 3.88 µM (active) and the AC50 [17] was 8.21 µM (active).
With `COc1ccccc1NC(=O)N1CCCCN2[C@H](CO)[C@H](c3ccc(C#Cc4ccccc4)cc3)[C@@H]2C1` the AC50 [13] was 0.0745 µM (active), the AC50 [14] was > 100 µM (inactive) and the AC50 [15] was < 0.3 µM (active). For the same molecule, the AC50 [16] was 0.118 µM (active) and the AC50 [17] was 0.0817 µM (active).
With `CO[C@H]1CN(C)C(=O)c2cc(NC(=O)c3ccccc3F)ccc2OC[C@H](C)N(C(=O)c2ccccc2F)C[C@H]1C` the AC50 [13] was 2.93 µM (active), the AC50 [14] was > 100 µM (inactive) and the AC50 [15] was 2.47 µM (active). The AC50 [16] was 1.78 µM (active) and the AC50 [17] was 1.53 µM (active).
With `CO[C@H]1CN(C)C(=O)c2ccc(NC(=O)Nc3ccc(C(F)(F)F)cc3)cc2OC[C@H](C)NC[C@H]1C` the AC50 [13] was 1.37 µM (active), the AC50 [14] was 26.9 µM (active) and the AC50 [15] was 3.01 µM (active). For the same molecule, the AC50 [16] was 2.16 µM (active) and the AC50 [17] was 2.17 µM (active).
For `CCCCC(=O)O[C@H]1CC[C@H]2[C@@H]3CCc4cc(O)ccc4[C@H]3CC[C@]12C` [ESTRADIOL VALERATE], the EC50 [2] was 2.3 µM (active), the EC50 [3] was 18.9 µM (active) and the EC50 [4] was > 20 µM (not active). The EC50 (Streptococcus) was 2.29 µM (active).
